These results are taken from ChEMBL document CHEMBL1127323, “Isosteric phosphonate analogs of ET-16-OMe. Synthesis and biological evaluation of the enantiomers of 2'-(trimethylammonio)ethyl 4-(hexadecyloxy)-3-methoxybutanephosphonate and 2'-(trimethylammonio)ethyl 4-(hexadecylthio)-3-methoxybutanephosphonate” (J Med Chem, 1994).

As a reminder, the IC50 is the concentration at which inhibition is half-maximal. High values mean weaker potency in that assay, low ones greater potency in that assay.

SMILES strings stand for the structures.

The test system of one assay is L1210. Briefly: Inhibitory activity against L1210 growth using clonogenic assay. Type of assay: functional, cell-based. To be noted: Mus musculus.
The species named for another assay is Mus musculus. Briefly: Inhibitory activity against murine leukemia. Type of assay: functional, organism-based.
The next assay relates to P388. Briefly: Inhibitory activity against adriamycin-sensitive and resistant cells in P388 and P388-ADR cells. To be noted: Mus musculus. Format: functional, cell-based.

Turning to `CCCCCCCCCCCCCCCCOC[C@H](CCP(=O)([O-])OCC[N+](C)(C)C)OC`, the IC50 in the assay on L1210 was 2500 nM; in the assay listed under Mus musculus it was 1000 nM; with P388, 2500 nM.
Take `CCCCCCCCCCCCCCCCSC[C@H](CCP(=O)([O-])OCC[N+](C)(C)C)OC`: in the assay listed under Mus musculus, the half-inhibitory concentration (IC50) came to 1000 nM.
